Experiment [1] has as its system C3H10T1/2 adipocytes. Description: Immunoblot analysis of C3H10T1/2 adipocytes (PKA signaling, mitochondrial enzymes). In kind it is cell-based. The note with it: for levels of phosphorylated HSL, CREB and PKA substrates / mitochondrial enzymes, including MCAD, ATP5A, UQCRC2, SDHB, NDUFB8, and COXIV: 1 μM; for levels of phosphorylated HSL, CREB and PKA substrates: 24 or 48 hours, vs vehicle, FIG. 1A; for mitochondrial enzymes, including MCAD, ATP5A, UQCRC2, SDHB, NDUFB8, and COXIV: long-term treatment (48 hours), FIG. 1B. The procedure:
(§1) C3H10T1/2 cells were purchased from the American Type Culture Collection (ATCC), and in vitro adipocyte experiments were performed using these cells, which were cultured in DMEM (Welgene) supplemented with 10% FBS (Gibco) and 1% P/S at 37° C. in a humidified atmosphere of 5% CO2. To prepare fully differentiated C3H10T1/2 adipocytes, confluent C3H10T1/2 cells were exposed to BMP4 (R&D system, 20 ng/ml) for 2 days, and induced in a differentiation medium containing IBMX (isobutylmethylxanthine, Cayman, 0.5 mM), dexamethasone (Cayman, 1 μM), insulin (Sigma, 10 μg/mL), indomethacin (Cayman, 0.125 mM), and triiodothyronine (T3, Cayman, 1 nM) for 3 days, then exposed to a maintenance medium containing insulin (1 μg/mL) and T3 (1 nM) for 3 days. To evaluate in vitro effects of lysoplasmalogen, the fully differentiated C3H10T1/2 cells were treated with vehicle control, LPE P-18:0 (1 μM) or LPC P-18:0 (1 μM), LPC P-16:0. (10 μM) or isoproterenol (10 μM) for an indicated time.
(§2) BAT, iWAT and gWAT of mice fed a HFD and administered vehicle control or LPE P-18:0 intraperitoneally were homogenized using the tacoPrep Bead Beater homogenization system in a PROPREP protein extraction solution (iNtRON Biotechnology) containing SIGMAFAST Protease Inhibitor Cocktail (Sigma) and PhoSTOP phosphatase inhibitor (Roche). C3H10T1/2 adipocytes treated with vehicle control, LPE P-18:0 (1 μM) or LPC P-18:0 (1 μM), LPC P-16:0 (10 µM) or isoproterenol (10 μM) were lysed in RIPA Lysis and Extraction Buffer (Thermo Fisher Scientific) containing SIGMAFAST protease inhibitor cocktail (Sigma) and PhoSTOP phosphatase inhibitor (Roche). The extracted protein concentration was quantified by BCA analysis and measured by spectrophotometry at 562 nm (MultiSkan GO, Thermo Fisher Scientific). Proteins were denatured in an SDS sample buffer at 95° C. for 5 min, separated in SDS-PAGE gel, and transferred to a PVDF membrane (Bio-Rad). The membrane was blocked with BSA in 5% non-fat dry milk or TBST (Tris-buffered saline containing 0.1% Tween 20) and incubated overnight along with the primary antibody at 4° C., then cultured with horseradish peroxidase (HRP)-conjugated secondary antibody for 1 hour at room temperature. The primary antibody used for Western blot analysis are listed in Reagents or Resources. Protein expression was detected by a Fusion Solo chemiluminescence imaging system (Vilber Lourmat) and analyzed with EvolutionCapt software (version 17.03). Immunoblots were quantified with National Institutes of Health ImageJ software (version 1.52a).

The subject of experiment [2] is HFD-fed mice. In words: Intraperitoneal insulin tolerance test (ITT). It counts as in vivo. The settings on record: 200 μg/kg/day intraperitoneally for 2 weeks, insulin 0.75 units/kg i.p., FIG. 5E. The procedure: (§3) For the diet-induced obesity model, 8-week-old mice were fed a HFD (60% fat, Research Diets, cat #D12492) for 8 weeks. Standardized rodent pellet feed (NCD, Purina, cat #38057) was used as the control feed. Energy expenditure (EE) was estimated by an indirect calorimeter (PhenoMaster, TSE Systems, Germany). Body compositions were measured by nuclear magnetic resonance (NMR) scanning EchoMRI-700 (Echo Medical Systems). To investigate effects of treatment with LPE P-18:0, the mice were fed a HFD for 8 weeks and injected intraperitoneally with LPE P-18:0 (Avanti Polar Lipids, 200 μg/kg/day, cat #852471P) or vehicle for 2 weeks.
For the insulin tolerance test, the mice were fasted for 6 hours before the test, was injected intraperitoneally with insulin (Sigma, 0.75 units/kg body weight, cat #91077C-1G), and blood glucose was measured at a designated time interval.

For experiment [3], the system named is C3H10T1/2 adipocytes. Description: Quantification of intracellular cAMP level (Direct cAMP ELISA). In kind it is cell-based. The note with it: 1 μM, 24 hours; FIG. 2A. The protocol: as §1, with “To evaluate in vitro effects of lysoplasmalogen, the fully differentiated C3H10T1/2 cells were treated with vehicle control, LPE P-18:0 (1 μM) or LPC P-18:0 (1 μM), LPC P-16:0. (10 μM) or isoproterenol (10 μM) for an indicated time.” left out
To measure intracellular CAMP levels in the differentiated C3H10T1/2 adipocytes treated with LPC P-18:0 (1 μM), LPE P-18:0 (1 μM) or isoproterenol (10 μM), The Direct CAMP ELISA Kit (Enzo) was used according to the manufacturer's instructions. […] The absorbance of the plate was measured at 405 nm, and the calculated absorbance was converted into pmol/ml of CAMP using AssayFit Pro (v1.31), and normalized to protein concentration measured with the Pierce BCA Protein Assay Kit (Thermo Fisher Scientific).

The subject of experiment [4] is HFD-fed mice. Description: Indirect calorimetry analysis in HFD-fed mice. It counts as in vivo. The note with it: 200 μg/kg/day intraperitoneally for 2 weeks. The procedure:
as §3

The subject of experiment [5] is adipose tissues of HFD-fed mice. Description: Immunoblot analysis of BAT, iWAT and gWAT of HFD-fed mice. In kind it is in vivo. The settings on record: 200 μg/kg/day intraperitoneally for 2 weeks, FIGS. 3A, 3B. The procedure: as §2, with “Proteins were denatured in an SDS sample buffer at 95° C. for 5 min, separated in SDS-PAGE gel, and transferred to a PVDF membrane (Bio-Rad). The membrane was blocked with BSA in 5% non-fat dry milk or TBST (Tris-buffered saline containing 0.1% Tween 20) and incubated overnight along with the primary antibody at 4° C., then cultured with horseradish peroxidase (HRP)-conjugated secondary antibody for 1 hour at room temperature. The primary antibody used for Western blot analysis are listed in Reagents or Resources.” left out
For the diet-induced obesity model, 8-week-old mice were fed a HFD (60% fat, Research Diets, cat #D12492) for 8 weeks. […] Body compositions were measured by nuclear magnetic resonance (NMR) scanning EchoMRI-700 (Echo Medical Systems). […]

The subject of experiment [6] is HFD-fed mice. Description: Glucose tolerance test in HFD-fed mice. It counts as in vivo. The settings on record: 200 μg/kg/day intraperitoneally for 2 weeks, FIG. 4. The procedure: as §3
Experiment [7] has as its system C3H10T1/2 adipocytes. In words: Oxygen consumption rate (Seahorse XF, Cell Mito Stress Test). In kind it is cell-based. The settings on record: 1 μM; FIGS. 2B and 2C. The protocol:
as §1
Oxygen consumption rates (OCRs) were measured with a Seahorse XF Analyzer (Agilent). The differentiated C3H10T1/2 adipocytes […] treated with LPC P-18:0 (1 μM), LPE P-18:0 or vehicle were washed, and maintained in an assay medium (XF DMEM basal medium, pH 7.4 (Agilent)) supplemented with D-(+)-glucose (25 mM) and L-glutamine (4 mM). The XFp Cell Mito Stress Test Kit (Agilent) was used at concentrations of 2.5 μM oligomycin, 0.5 μM carbonyl cyanide-4-(trifluoromethoxy) phenylhydrazone (FCCP) and 0.5 µM rotenone/antimycin A. Basal and maximal OCRs were calculated by subtracting non-mitochondrial respiration. The ATP production rate was calculated by subtracting the OCR induced by oligomycin A from the basal OCR. Spare respiratory capacity was calculated by subtracting baseline OCR from the maximal OCR. The OCR was normalized to protein concentration. Data were analyzed using Agilent Wave software (version 2.6.0.31).

Experiment [8] deals with HFD-fed mice. In words: Body weight and body composition in diet-induced obesity model. In kind it is in vivo. The note with it: 200 μg/kg/day intraperitoneally for 2 weeks, FIG. 5. The procedure:
as §3

The values below come from patent publication US20240408122A1, “PHARMACEUTICAL COMPOSITION FOR PREVENTION OR TREATMENT OF METABOLIC DISEASE COMPRISING LYSOPHOSPHOLIPID” (SEOUL NATIONAL UNIVERSITY R&DB FOUNDATION, priority 2021, published 2024).

For `CCCCCCCCCCCCCC/C=C\OC[C@@H](O)COP(=O)([O-])OCC[N+](C)(C)C` [LPC P-16:0], in the experiment with C3H10T1/2 adipocytes [1] (10 μM, 4 hours, vs vehicle (4 mg/mL fatty acid-free BSA), FIG. 6), the “levels of phosphorylated HSL and CREB” value is listed as “significant increase”.

In the case of `CCCCCCCCCCCCCCCC/C=C\OC[C@@H](O)COP(=O)(O)OCCN` [LPE P-18:0], the insulin tolerance result in the experiment with HFD-fed mice [2] is recorded as “decreased”. In the experiment with C3H10T1/2 adipocytes [3], the “intracellular cAMP levels” value is on record as “increase”. For the same compound, in the experiment with HFD-fed mice [4], the Food intake entry was “decreased” and the activity entry is recorded as “increased”. Moreover, in the experiment on HFD-fed mice [4] (FIGS. 5C, 5D), the VO2 result was “increased” and the energy expenditure entry was “increased”. The “PKA signaling and mitochondrial activity in the adipose tissues” value in experiment [5] is given as “upregulates”. Moreover, in the experiment with C3H10T1/2 adipocytes [1], the “levels of phosphorylated HSL, CREB and PKA substrates” value is given as “significant increase”; the “mitochondrial enzymes, including MCAD, ATP5A, UQCRC2, SDHB, NDUFB8, and COXIV” value is “significant upregulation”. Also, in the experiment on HFD-fed mice [6], the glucose tolerance result is “improves”. Moreover, in the experiment with C3H10T1/2 adipocytes [7], the ATP production rate entry is recorded as “increase”, the maximum respiration rate result is given as “increase” and the spare respiratory capacity result was “increase”. In the experiment with HFD-fed mice [8], the body fat mass entry is listed as “decreased” and the body weight entry is given as “decreased”.

Turning to `CCCCCCCCCCCCCCCC/C=C\OC[C@@H](O)COP(=O)([O-])OCC[N+](C)(C)C` [LPC P-18:0], the “intracellular cAMP levels” value with C3H10T1/2 adipocytes [3] was “increase”. Besides, in the experiment on C3H10T1/2 adipocytes [1], the “levels of phosphorylated HSL, CREB and PKA substrates” value is listed as “significant increase”; the “mitochondrial enzymes, including MCAD, ATP5A, UQCRC2, SDHB, NDUFB8, and COXIV” value was “significant upregulation”. Also, in the experiment on C3H10T1/2 adipocytes [7], the ATP production rate result is on record as “increase”, the maximum respiration rate result is “increase” and the spare respiratory capacity entry is “increase”.
